Reference: ChEMBL document CHEMBL5338807, “Design and Synthesis of Bouchardatine Derivatives as a Novel AMP-Activated Protein Kinase Activator for the Treatment of Colorectal Cancer” (J Med Chem, 2023)
Active and inactive are the calls of the source. The rule behind the calls is not given here.

Columns and labels:
[1] = system: RKO; test: Antiproliferative activity against human RKO cells assessed as reduction in cell viability incubated for 24 hrs; assay type: functional, cell-based
[2] = system: RKO; test: Antiproliferative activity against human RKO cells assessed as reduction in cell viability incubated for 24 hrs in presence of oligomycin by propidium iodide staining based high-content screening method; assay type: functional
[3] = system: RKO; test: Inhibition of cell migration of human RKO cells at 0.1 uM incubated for 48 hrs by wound healing assay; assay type: functional, cell-based
[4] = system: RKO; test: Upregulation of mitochondrial complex III in human RKO cells at 0.1 uM incubated for 24 hrs by Western blotting analysis; assay type: functional, cell-based
[5] = system: RKO; test: Antiproliferative activity against human RKO cells assessed as inhibition of colony formation at 0.1 uM measured after 7 days by crystal violet staining based assay; assay type: functional, cell-based; details: time 7.0 day
[6] = system: NCM460; test: Effect on metabolism in human NCM460 cells assessed as change in extracellular acidification rate at 0.1 uM measured after 24 hrs by seahorse analysis; assay type: functional, cell-based
[7] = Toxicity in BALB/nude mouse xenografted with human RKO cells assessed as body weight loss at 10 mg/kg, ip administered once daily for 25 days; assay type: organism-based; details: in vivo, 600 h, time 25 day
[8] = system: RKO; test: Antiproliferative activity against human RKO cells assessed as reduction in cell viability incubated for 24 hrs in presence of FCCP by propidium iodide staining based high-content screening method; assay type: functional
[9] = system: RKO; test: Antiproliferative activity against human RKO cells assessed as reduction in cell viability incubated for 24 hrs by propidium iodide staining based high-content screening method relative to control; assay type: functional
[10] = system: HCT-116; test: Antiproliferative activity against human HCT-116 cells assessed as reduction in cell viability incubated for 24 hrs; assay type: functional, cell-based; details: HCT-116, 24 h
[11] = Cytotoxicity against human LX2 cells assessed as reduction in cell viability incubated for 24 hrs; assay type: toxicity, cell-based; details: LX-2 cells
[12] = system: RKO; test: Antitumor activity against human RKO cells xenografted in BALB/nude mouse assessed as tumor growth inhibition at 10 mg/kg, ip administered once daily for 25 days; assay type: functional; details: 600 h, time 25 day
[13] = system: RKO; test: Antiproliferative activity against human RKO cells assessed as cell killing at 0.5 uM measured after 16 hrs by RTCA assay; assay type: functional, cell-based
[14] = system: RKO; test: Effect on energy metabolism in human RKO cells assessed as increase in mitochondrial membrane potential at 0.1 uM incubated for 24 hrs by rhodamine 123 staining based flow cytometric analysis; assay type: functional, cell-based
[15] = system: RKO; test: Effect on metabolism in human RKO cells assessed as oxygen consumption rate by measuring enhancement of ATP production at 0.1 uM measured after 24 hrs by seahorse analysis; assay type: functional, cell-based
[16] = system: RKO; test: Upregulation of mitochondrial complex V in human RKO cells at 0.1 uM incubated for 24 hrs by Western blotting analysis; assay type: functional, cell-based
[17] = system: SW480; test: Antiproliferative activity against human SW480 cells assessed as reduction in cell viability incubated for 24 hrs; assay type: functional, cell-based; details: SW480, 24 h
[18] = system: RKO; test: Antiproliferative activity against human RKO cells assessed as reduction in cell viability incubated for 24 hrs in presence of FCCP by propidium iodide staining based high-content screening method relative to control; assay type: functional
[19] = system: RKO; test: Antiproliferative activity against human RKO cells assessed as reduction in cell viability incubated for 24 hrs in presence of oligomycin by propidium iodide staining based high-content screening method relative to control; assay type: functional
[20] = system: RKO; test: Effect on metabolism in human RKO cells assessed as oxygen consumption rate by measuring enhancement of basal respiration at 0.1 uM measured after 24 hrs by seahorse analysis; assay type: functional, cell-based
[21] = system: RKO; test: Antiproliferative activity against human RKO cells assessed as reduction in cell viability incubated for 24 hrs by propidium iodide staining based high-content screening method; assay type: functional
[22] = system: RKO; test: Upregulation of p-AMPK expression in human RKO cells at 0.1 uM incubated for 24 hrs by Western blotting analysis; assay type: functional, cell-based
[23] = system: RKO; test: Effect on metabolism in human RKO cells assessed as enhancement of oxygen consumption rate at 0.1 uM measured after 24 hrs by seahorse analysis; assay type: functional, cell-based
[24] = system: RKO; test: Effect on energy metabolism in human RKO cells assessed as increase in AMP level incubated for 24 hrs by luminescence based analysis; assay type: functional, cell-based
[25] = system: RKO; test: Effect on metabolism in human RKO cells assessed as oxygen consumption rate by measuring enhancement of proton leak at 0.1 uM measured after 24 hrs by seahorse analysis; assay type: functional, cell-based
[26] = system: RKO; test: Effect on metabolism in human RKO cells assessed as oxygen consumption rate by measuring enhancement of maximal respiration at 0.1 uM measured after 24 hrs by seahorse analysis; assay type: functional, cell-based
[27] = system: RKO; test: Antitumor activity against human RKO cells xenografted in BALB/nude mouse assessed as activation of p-AMPKalpha at Thr172 residue in tumor tissue at 10 mg/kg, ip administered once daily for 25 days by immunohistochemical based microscopic analysis; assay type: functional, organism-based; details: time 25.0 day
[28] = system: RKO; test: Induction of mitochondrial damage in human RKO cells assessed as decrease in ROS level at 0.1 uM incubated for 24 hrs by DCFH-DA staining based flow cytometric analysis; assay type: functional, cell-based
[29] = Cytotoxicity against human L02 cells assessed as reduction in cell viability incubated for 24 hrs; assay type: toxicity, cell-based
[30] = system: RKO; test: Effect on energy metabolism in human RKO cells assessed as upregulation of ATP production incubated for 24 hrs by luminescence based analysis; assay type: functional, cell-based
[31] = system: DLD-1; test: Antiproliferative activity against human DLD-1 cells assessed as reduction in cell viability incubated for 24 hrs; assay type: functional, cell-based; details: DLD-1, 24 h
[32] = system: RKO; test: Antiproliferative activity against human RKO cells assessed as reduction in cell density at 0.1 uM measured after 16 hrs by RTCA assay; assay type: functional, cell-based
[33] = Cytotoxicity against human NCM460 cells assessed as reduction in cell viability incubated for 24 hrs; assay type: toxicity, cell-based
[34] = system: RKO; test: Effect on energy metabolism in human RKO cells assessed as decrease in ATP production incubated for 24 hrs by luminescence based analysis; assay type: functional, cell-based
[35] = system: RKO; test: Effect on metabolism in human RKO cells assessed as inhibition of oxidative phosphorylation at 50 mM measured after 24 hrs by seahorse analysis; assay type: functional, cell-based
[36] = system: RKO; test: Inhibition of cell migration of human RKO cells at 1 uM incubated for 48 hrs by wound healing assay; assay type: functional, cell-based
[37] = system: RKO; test: Antiproliferative activity against human RKO cells assessed as inhibition of colony formation at 1 uM measured after 7 days by crystal violet staining based assay; assay type: functional, cell-based; details: time 7.0 day
[38] = system: RKO; test: Effect on metabolism in human RKO cells assessed as activation of oxidative phosphorylation at 1 uM measured after 24 hrs by seahorse analysis; assay type: functional, cell-based

Work on `COC(=O)c1c(-c2nc(NCCN3CCCC3)c3ccccc3n2)[nH]c2ccccc12` yielded an IC50 [1] of 6.1 µM.

With `O=Cc1c(-c2nc(NCCc3ccc(O)cc3)c3ccccc3n2)[nH]c2ccccc12` the IC50 [2] was > 1000 nM, the inhibition [3] was “Active” and the Activity [4] was “Active”. For the same compound, the inhibition [5] was “Active”, the Activity [6] was “inactive” and the Activity [7] was “Non-Toxic”. The IC50 [8] was > 1000 nM, the “inhibition (INH)” value [9] was 92% and the IC50 [10] was < 1000 nM. For the same compound, the IC50 at 24 h [11] was > 15 µM, the inhibition in vivo at 10 mg/kg [12] was 58.2% and the Activity [13] was “Active”. For the same compound, the Activity [14] was “Active”, the Activity [15] was “Active” and the Activity [16] was “Active”. For the same compound, the IC50 [17] was < 1000 nM, the “inhibition (INH)” value [18] was 25% and the “inhibition (INH)” value [19] was 52%. The Activity [20] was “Active”, the IC50 [21] was 70 nM and the Activity [22] was “Active”. The Activity [23] was “Active”, the Activity [24] was “Active” and the Activity [25] was “Active”. For the same compound, the Activity [26] was “Active”, the Activity [27] was “Active” and the Activity [28] was “Active”. The IC50 at 24 h [29] was > 15 µM, the Activity [30] was “Active” and the IC50 [31] was < 1000 nM. The Activity [32] was “Active”, the IC50 at 24 h [33] was > 15 µM and the IC50 [1] was 0.1 µM.

With `CN(C)C(=N)NC(=N)N` the Activity [34] was “Active” and the inhibition [35] was “Active”.

In the case of `CN(C)c1nc(-c2[nH]c3ccccc3c2C=O)nc2ccccc12`, the IC50 [1] is reported as 4.8 µM.

In the case of `CC(=O)c1c(-c2nc(NCCCN(C)C)c3ccccc3n2)[nH]c2ccccc12`, the IC50 [1] is reported as > 10 µM.

`O=Cc1c(-c2nc(NC(C3CC3)C3CC3)c3ccccc3n2)[nH]c2ccccc12` gave an IC50 [1] of 6 µM.

With `C=Cc1c(C)nc(-c2[nH]c3ccccc3c2C(C)=O)nc1NCCCN1CCCC1` the IC50 [1] was > 10 µM.

In the case of `CCC(=O)Nc1nc(-c2[nH]c3ccccc3c2C=O)nc2ccccc12`, the IC50 [1] is reported as > 10 µM.

In the case of `CN(C)CCCNc1nc(-c2[nH]c3ccccc3c2C(=O)O)nc2ccccc12`, the IC50 [1] is reported as 5.3 µM.

With `COCCNc1nc(-c2[nH]c3ccccc3c2C=O)nc2ccccc12` the IC50 [1] was 4.1 µM.

For `O=Cc1c(-c2nc(NC3CC3)c3ccccc3n2)[nH]c2ccccc12`, the IC50 [1] was 3.9 µM.

For `O=Cc1c(-c2nc(NCCc3ccc(C(F)(F)F)cc3)c3ccccc3n2)[nH]c2ccccc12`, the IC50 [1] was 4.2 µM.

For `Cc1c(-c2nc(NCCN3CCCCC3)c3ccccc3n2)[nH]c2ccccc12`, the IC50 [1] was > 10 µM.

`Cc1ccc(CCNc2nc(-c3[nH]c4ccccc4c3C=O)nc3ccccc23)cc1` gave an IC50 [1] of 1.8 µM.

`O=Cc1c(-c2nc(NCCN3CCCC3)c3ccccc3n2)[nH]c2ccccc12` gave an IC50 [1] of 1.1 µM.

Compound `O=Cc1c(-c2nc(NCC3CC3)c3ccccc3n2)[nH]c2ccccc12` has an IC50 [1] of 4.8 µM.

Compound `CN(C)CCCNc1nc(-c2[nH]c3ccc(F)cc3c2C=O)nc2ccccc12` has an IC50 [1] of 1.9 µM.

Work on `Cc1ccc2[nH]c(-c3nc(NCCN(C)C)c4ccccc4n3)c(C=O)c2c1` yielded an IC50 [1] of 0.7 µM.

Work on `CN(C)CC(C)(C)CNc1nc(-c2[nH]c3ccccc3c2C=O)nc2ccccc12` yielded an IC50 [1] of 5.3 µM.

Work on `CC(C)(C)OC(=O)NCCCNc1nc(-c2[nH]c3ccccc3c2C=O)nc2ccccc12` yielded an IC50 [1] of 5.4 µM.

For `O=Cc1c(-c2nc(Nc3ccc(N4CCCCC4)cc3)c3ccccc3n2)[nH]c2ccccc12`, the IC50 [1] was > 10 µM.

For `COCCCNc1nc(-c2[nH]c3ccccc3c2C=O)nc2ccccc12`, the IC50 [1] was 1.1 µM.

Compound `O=Cc1c(-c2nc(NCC3CCC3)c3ccccc3n2)[nH]c2ccccc12` has an IC50 [1] of 6.2 µM.

For `O=Cc1c(-c2nc(NC34CC5CC(CC(C5)C3)C4)c3ccccc3n2)[nH]c2ccccc12`, the IC50 [1] was > 10 µM.

For `CN(C)CCCNc1nc(-c2[nH]c3ccccc3c2C=O)nc2ccccc12`, the inhibition [36] was “Active”, the inhibition [37] was “Active” and the Activity [38] was “Active”. The IC50 [1] was 1.7 µM.

For `CN(C)CCNc1nc(-c2[nH]c3ccc(Cl)cc3c2C=O)nc2ccccc12`, the IC50 [1] was 5.3 µM.

For `O=Cc1c(-c2nc3ccccc3c(=O)[nH]2)[nH]c2ccccc12`, the inhibition [36] was “Active”, the inhibition [37] was “Active” and the Activity [38] was “Active”. For the same compound, the IC50 [1] was > 10 µM.
